In paper PMC3769273, “The Relationship between Functional Inhibition and Binding for KCa2 Channel Blockers” (PLoS ONE, 2013):

Key:
KCa2.3 [1] = biological target: T1, KCa2.3 (Rattus norvegicus, UniProt P70605); assay: Competition binding: inhibition of 125I-apamin binding to HEK 293 cells expressing KCa2.3; conditions: for Ki: KCa2.3, Cheng-Prussoff correction, read-out: K i for displacement of mono-iodoapamin
T1 construct: expressed in transfected cells; host or cells: HEK 293 cell line stably expressing KCa2.3, made in house by zeocin selection
Procedure: (§1) Radio-ligand binding studies were conducted using HEK 293 cell lines stably expressing KCa2.2 or KCa2.3. The cells were cultured in DMEM supplemented with 10% foetal calf serum, 2 mM L-glutamine, penicillin (200 units ml^–1) and streptomycin (100 µg ml^–1) in T500 flasks (Nunc). When confluent, these cells were harvested mechanically (to avoid the use of trypsin) into Ca^2+/Mg^2+ free HBSS. The cells were centrifuged at 50 g for 2 min, resuspended in DMEM at a density of approximately 2.5×10^6 cells ml^–1 and stored at 4°C until used (<2 hr). Cell density was estimated using a haemocytometer.
(§2) Routinely, incubations were performed in a total volume of 250 µl comprising 100 µl cell suspension (∼250000 cells), 100 µl ^125I-apamin and 50 µl displacing agent or incubation medium. The incubation medium contained (in mM) NaCl 140, KCl 5, MgCl2 1, CaCl2 2, glucose 10 and HEPES 10. The pH was adjusted to 7.4 with 1 M NaOH. Non-specific binding was estimated in the presence of 100 nM UCL 1848, a potent KCa2 channel blocker which causes maximal inhibition at this concentration (see Hosseini et al., Benton et al.[13]). Measurements for each test were performed in triplicate. Separation of cells from unbound ligand was achieved by rapid filtration through Whatman GF/B filters pre-treated with 0.3% v/v polyethyleneimine using a Skatron AS harvester. The quantity of labelled apamin bound was measured using a calibrated γ counter (LKB 1275) and expressed as fmol label/10^6 cells. All binding experiments were conducted at room temperature (20–25°C).
(§3) The ability of test compounds to inhibit ^125I-apamin binding was measured in the presence of 20–60 pM ^125I-apamin with or without the test compound. In every experiment each concentration of inhibitor was tested in triplicate and the data presented represents the mean of at least two separate experiments. Inhibition curves were fitted by a variant of Hill-Langmuir equation: [drawing 3] where B I is the specific binding of label in the presence of inhibitor as a percentage of the binding in its absence. Estimates of K i were obtained using the Cheng-Prussoff correction taking estimates of K L from the saturation binding studies.

KCa2.3 [2] = conditions: KCa2.3, CHO cells, ref Hosseini et al. 2000; read-out: IC50 for inhibition of KCa2 current; cited from earlier work
KCa2.2 [3] = biological target: T2, KCa2.2 (Rattus norvegicus, UniProt P70604); assay: Competition binding: inhibition of 125I-apamin binding to HEK 293 cells expressing KCa2.2; conditions: for Ki: KCa2.2, Cheng-Prussoff correction, read-out: K i for displacement of mono-iodoapamin
T2 construct: expressed in transfected cells; host or cells: HEK 293 cells, transient transfection (Lipofectamine 2000) with channel plasmid plus a separate GFP plasmid; Some experiments used stably transfected cells
Procedure: as §1, §2, §3

KCa2.2 [4] = biological target: T2, KCa2.2; assay: cell-based; type: cell-based; conditions: for IC50: KCa2.2, standard physiological solution, measured at −20 mV, read-out: IC50 for inhibition of KCa2 current; for common Hill slope of concentration-inhibition curves: KCa2.2 current, standard solution
Procedure: For electrophysiology, wild type and stably transfected HEK cells were plated in 35 mm dishes. In most experiments KCa2.2 was transiently expressed in HEK 293 cells. Transient transfection was achieved using Lipofectamine 2000 (Invitrogen) according to the manufacturer's instructions. Briefly, 2 µg channel plasmid and 1 µg QBI (QBiogene), which expresses GFP, was mixed with 3 µg Lipofectamine 2000 and added to each 35 mm dish. GFP expressing cells were identified by epi-fluorescence. Conventional whole cell recordings were made using an EPC9 amplifier controlled by Pulse software (Heka). Data were filtered at 1 kHz and acquired at 5 kHz. Borosilicate glass patch pipettes (2–5 MΩ) were coated with Sylgard resin, fire polished and filled with a solution containing (in mM): KCl 140, HEPES 10, K2HEDTA 5, and either 1.2 CaCl2 (free Ca^2+ = 1 µM) or no added Ca^2+ (free Ca^2+ <10 nM). The pH was adjusted to 7.2 with 1 M KOH. Free Ca^2+ concentrations were calculated using the REACT program (G.L. Smith, University of Glasgow) and stability constants for HEDTA published in Martell and Smith. Except where stated the extracellular solution was the same as the incubation medium used in binding experiments. As with binding studies all experiments were performed at room temperature (20–25°C).
Routinely, cells were held at −80 mV and 100 ms test pulses applied to potentials between −120 mV and 40 mV. […] In order to avoid contamination of KCa2 current by the endogenous currents, inhibition by blocking agents was measured at −20 mV.
Concentration-inhibition curves were fitted by a variant of the Hill equation with the form: [drawing 4] where y is the current in the presence of blocker at concentration [B] expressed as a percentage of control and n is the Hill coefficient.

T1 sequence (P70605 whole entry): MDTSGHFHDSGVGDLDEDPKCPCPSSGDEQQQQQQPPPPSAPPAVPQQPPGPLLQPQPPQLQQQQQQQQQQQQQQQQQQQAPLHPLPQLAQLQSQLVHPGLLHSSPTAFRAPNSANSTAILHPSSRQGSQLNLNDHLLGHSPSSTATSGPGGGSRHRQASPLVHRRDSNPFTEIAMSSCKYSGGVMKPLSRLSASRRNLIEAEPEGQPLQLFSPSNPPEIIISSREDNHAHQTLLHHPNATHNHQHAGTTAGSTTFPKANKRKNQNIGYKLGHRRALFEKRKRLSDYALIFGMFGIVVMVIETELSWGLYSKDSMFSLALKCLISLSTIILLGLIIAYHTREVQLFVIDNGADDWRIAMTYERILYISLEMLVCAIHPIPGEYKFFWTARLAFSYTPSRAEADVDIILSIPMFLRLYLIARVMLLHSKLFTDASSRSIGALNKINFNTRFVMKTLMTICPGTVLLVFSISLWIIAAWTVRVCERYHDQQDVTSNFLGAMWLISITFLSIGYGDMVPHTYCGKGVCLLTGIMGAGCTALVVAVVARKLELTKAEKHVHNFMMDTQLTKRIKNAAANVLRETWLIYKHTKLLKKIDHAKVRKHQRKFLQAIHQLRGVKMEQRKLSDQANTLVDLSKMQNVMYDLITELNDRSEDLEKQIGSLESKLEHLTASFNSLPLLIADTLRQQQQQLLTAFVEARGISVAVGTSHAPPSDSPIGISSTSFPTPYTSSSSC
T2 sequence (P70604 whole entry): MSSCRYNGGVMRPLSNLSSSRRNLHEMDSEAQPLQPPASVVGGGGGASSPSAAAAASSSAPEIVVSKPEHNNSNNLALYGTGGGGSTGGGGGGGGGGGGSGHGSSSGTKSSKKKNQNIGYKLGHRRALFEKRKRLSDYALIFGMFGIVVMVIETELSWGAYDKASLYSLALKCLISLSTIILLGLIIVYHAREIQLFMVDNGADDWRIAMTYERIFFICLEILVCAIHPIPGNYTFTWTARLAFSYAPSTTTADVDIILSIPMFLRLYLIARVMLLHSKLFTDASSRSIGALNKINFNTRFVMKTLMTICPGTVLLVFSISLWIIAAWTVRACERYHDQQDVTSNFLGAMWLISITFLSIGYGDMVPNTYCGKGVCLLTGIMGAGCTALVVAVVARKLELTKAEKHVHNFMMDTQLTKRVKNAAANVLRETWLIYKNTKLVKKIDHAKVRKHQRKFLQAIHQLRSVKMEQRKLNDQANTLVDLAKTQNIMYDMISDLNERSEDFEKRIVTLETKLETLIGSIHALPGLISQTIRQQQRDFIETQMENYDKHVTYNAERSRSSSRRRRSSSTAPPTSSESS

Compound | inhibition of total 125I-apamin binding (KCa2.3 [1]; 100 nM UCL 1848, 30 pM 125I-apamin, KCa2.3 expressing HEK 293 cells) | Ki (KCa2.3 [1]) | IC50 (KCa2.3 [2]) | inhibition of total 125I-apamin binding (KCa2.2 [3]; 100 nM UCL 1848, 30 pM 125I-apamin, KCa2.2 expressing HEK 293 cells) | Ki (KCa2.2 [3]) | IC50 (KCa2.2 [4]) | common Hill slope of concentration-inhibition curves (KCa2.2 [4])
8,14-diaza-1,7(1, 4)-diquinolinacyclotetradecaphane [UCL 1848] | almost completely inhibited | 0.652 ± 0.18 nM | 2.1 ± 0.3 nM | almost completely inhibited | 0.095 ± 0.0017 nM | 0.125 ± 0.0025 nM | 0.7±0.04
Cc1cc(N)c2ccccc2[n+]1CCCCCCCCCC[n+]1c(C)cc(N)c2ccccc21 [Dequalinium, dequalinium] | – | 865 ± 160 nM | 920 ± 140 nM | – | 977 ± 165 nM | 420 ± 99 nM | 0.7±0.04
CC[N+](CC)(CC)CCOc1cccc(OCC[N+](CC)(CC)CC)c1OCC[N+](CC)(CC)CC [Gallamine, gallamine] | – | 71000 ± 8000 nM | 98000 ± 700 nM | – | 26000 ± 5000 nM | 7000 ± 800 nM | 0.7±0.04
c1cc2cc(c1)C[n+]1ccc(c3ccccc31)NCc1ccc(cc1)CNc1cc[n+](c3ccccc13)C2 [UCL1684, 6,10–diaza-3(1,3),8(1,4)-dibenzena-1,5(1,4)- diquinolinacyclodecaphane] | – | 7.7 ± 1.6 nM | 5.8 ± 0.3 nM | – | 1.01 ± 0.022 nM | 0.53 ± 0.008 nM | 0.7±0.04
